Reference: US11643438B2, “Antimicrobial peptides and methods of use” (priority 2018, dated 2023)
Values after ≈ are worked out from the molar mass of the structure shown. “Also recorded” adds a separate entry of the source. Where two headings read alike, the source gives them in different places. Each block holds one molecule with its values, some of them ahead of it.

Key:
Candida albicans SC5314 [1] = assay: Antifungal MIC80/MFC assay, fungal pathogen panel
[2] = system: Candida albicans ATCC 10231; assay: Antifungal MIC80/MFC assay, fungal pathogen panel; conditions: ATCC10231
[3] = system: Candida parapsilosis ATCC 22019 (Y-12969); assay: Antifungal MIC80/MFC assay, fungal pathogen panel; conditions: Lodderomyces parapsilosis, ATCC22019
[4] = system: Candida tropicalis ATCC750 (Y-12699); assay: Antifungal MIC80/MFC assay, fungal pathogen panel; conditions: Candida tropicalis, ATCC750
[5] = system: Candida krusei ATCC 6258 (Y-7179); assay: Antifungal MIC80/MFC assay, fungal pathogen panel; conditions: Pichia kudriavzevii, ATCC6258
[6] = system: Cryptococcus neoformans H99; assay: Antifungal MIC80/MFC assay, fungal pathogen panel
[7] = system: Aspergillus fumigatus MYA 3627; assay: Antifungal MIC80/MFC assay, fungal pathogen panel; conditions: MYA3627
[8] = system: Aspergillus fumigatus NRRL6113; assay: Antifungal MIC80/MFC assay, fungal pathogen panel
[9] = system: Aspergillus fumigatus NRRL5109; assay: Antifungal MIC80/MFC assay, fungal pathogen panel
[10] = system: Aspergillus flavus NRRL485; assay: Antifungal MIC80/MFC assay, fungal pathogen panel
[11] = system: Aspergillus niger FGSC A732; assay: Antifungal MIC80/MFC assay, fungal pathogen panel; conditions: Aspergillus niger, FGSCA732
[12] = system: Aspergillus terreus 191A6; assay: Antifungal MIC80/MFC assay, fungal pathogen panel
[13] = system: Curvularia lunata NRRL6409; assay: Antifungal MIC80/MFC assay, fungal pathogen panel
[14] = system: Rhizopus oryzae FGSC 9543; assay: Antifungal MIC80/MFC assay, fungal pathogen panel; conditions: Rhizopus arrhizus, FGSC9543
[15] = system: Mucor circinelloides 235C7; assay: Antifungal MIC80/MFC assay, fungal pathogen panel
Fusarium solani 243G2 = assay: Antifungal MIC80/MFC assay, fungal pathogen panel
[16] = system: Paecilomyces lilacinus 165E10; assay: Antifungal MIC80/MFC assay, fungal pathogen panel; conditions: Purpureocillium lilacinum, 165E10
[17] = system: Hamigera insecticola NRRL35442; assay: Antifungal MIC80/MFC assay, fungal pathogen panel
Candida albicans SC5314 [18] = assay: Ex vivo model of fungal keratitis (porcine cornea); conditions: for antifungal activity (fungal growth/infection), in words: 0.1% 118A, 2% fluconazole, 5% natamycin, FIG. 11; for CFU: 118A 0.1% (1 mg/ml), natamycin 5% (50 mg/ml), fluconazole 2% (20 mg/ml)
C. albicans SC5314 Flu^R = assay: Ex vivo model of fungal keratitis (porcine cornea); parameters: species or system Candida albicans; conditions: C. albicans SC5314 Flu^R; 118A 0.1% (1 mg/ml), natamycin 5% (50 mg/ml), fluconazole 2% (20 mg/ml)
[19] = system: Aspergillus fumigatus NRRL5109; assay: Ex vivo model of fungal keratitis (porcine cornea); conditions: for antifungal activity (fungal growth/infection), in words: Aspergillus fumigatus NRRL 5109, 0.1% 118A, 2% fluconazole, 5% natamycin, FIG. 13; for CFU: Aspergillus fumigatus NRRL5109, 118A 0.1% (1 mg/ml), natamycin 5% (50 mg/ml), fluconazole 2% (20 mg/ml)
Alternaria brassicicola = assay: MIC/MFC against phytopathogenic (endophytic) fungi
Alternaria brassicae = assay: MIC/MFC against phytopathogenic (endophytic) fungi
Alternaria tennuissiema = assay: MIC/MFC against phytopathogenic (endophytic) fungi
Fusarium oxysporum = assay: MIC/MFC against phytopathogenic (endophytic) fungi
Fusarium tricinctum = assay: MIC/MFC against phytopathogenic (endophytic) fungi
Mycosphaerella populorum = assay: MIC/MFC against phytopathogenic (endophytic) fungi; conditions: Sphaerulina musiva
Nodulosporium spp. = assay: MIC/MFC against phytopathogenic (endophytic) fungi
P. glomerata = assay: MIC/MFC against phytopathogenic (endophytic) fungi

MIC80 (Candida albicans SC5314 [1]): 0.03 µM (≈ 0.0328 µg/mL)
MIC80 [2]: 0.03 µM (≈ 0.0328 µg/mL)
MIC80 [3]: 0.3 µM (≈ 0.328 µg/mL)
MIC80 [4]: 0.03 µM (≈ 0.0328 µg/mL)
MIC80 [5]: 0.15 µM (≈ 0.164 µg/mL)
MIC80 [6]: > 10 µM
MIC80 [7]: 0.07 µM (≈ 0.0765 µg/mL)
MIC80 [8]: > 10 µM
MIC80 [9]: > 10 µM
MIC80 [10]: > 10 µM
MIC80 [11]: 0.06 µM (≈ 0.0656 µg/mL)
MIC80 [12]: 0.125 µM (≈ 0.137 µg/mL)
MIC80 [13]: 5 µM (≈ 5.47 µg/mL)
MIC80 [14]: > 10 µM
MIC80 [15]: > 10 µM
MIC80 (Fusarium solani 243G2): 0.15 µM (≈ 0.164 µg/mL)
MIC80 [16]: > 10 µM
SMILES: CC[C@H](C)C[C@H](C)CCCCCCCCC(=O)N[C@H]1C[C@@H](O)[C@@H](NCCN)NC(=O)[C@@H]2[C@@H](O)CCN2C(=O)[C@H]([C@H](O)CCN)NC(=O)[C@H]([C@H](O)[C@@H](O)c2ccc(O)cc2)NC(=O)[C@@H]2C[C@@H](O)CN2C(=O)[C@H]([C@@H](C)O)NC1=O [CASP, caspofungin]
MFC (Candida albicans SC5314 [1]): 0.625 µM (≈ 0.683 µg/mL)
MFC [2]: 5 µM (≈ 5.47 µg/mL)
MFC [3]: 1.25 µM (≈ 1.37 µg/mL)
MFC [4]: 0.15 µM (≈ 0.164 µg/mL)
MFC [5]: 0.3 µM (≈ 0.328 µg/mL)
MFC [6]: > 10 µM
MFC [7]: > 10 µM
MFC [8]: > 10 µM
MFC [9]: > 10 µM
MFC [10]: > 10 µM
MFC [11]: > 10 µM
MFC [12]: > 10 µM
MFC [13]: 5 µM (≈ 5.47 µg/mL)
MFC [14]: > 10 µM
MFC [15]: > 10 µM
MFC (Fusarium solani 243G2): > 10 µM
MFC [16]: > 10 µM
MFC [17]: > 10 µM
MIC80 [17]: 0.06 µM (≈ 0.0656 µg/mL)

SMILES: OC(Cn1cncn1)(Cn1cncn1)c1ccc(F)cc1F [Fluconazole, fluconazole]
antifungal activity (fungal growth/infection), in words (Candida albicans SC5314 [18]): reduced the infection
CFU (Candida albicans SC5314 [18]): 13.7 ± 19.3 CFU
CFU (C. albicans SC5314 Flu^R): 2.2 ± 0.9 × 10^5 CFU
antifungal activity (fungal growth/infection), in words [19]: did not inhibit the growth
antifungal activity (fungal growth/infection), in words ([19]; listed as fluconazole): unable to fully inhibit the fungus
CFU [19]: 2.0 ± 1.0 × 10^4 CFU

SMILES: N#Cc1c[nH]cc1-c1cccc2c1OC(F)(F)O2 [Fludioxonil, fludioxonil]
MFC (Alternaria brassicicola): > 20 µM
MIC (Alternaria brassicicola): 1.25 µM (≈ 0.31 µg/mL)
MFC (Alternaria brassicae): 2.5 µM (≈ 0.62 µg/mL)
MIC (Alternaria brassicae): 0.625 µM (≈ 0.155 µg/mL)
MFC (Alternaria tennuissiema): 1.25 µM (≈ 0.31 µg/mL)
MIC (Alternaria tennuissiema): 1.25 µM (≈ 0.31 µg/mL)
MFC (Fusarium oxysporum): > 20 µM
MIC (Fusarium oxysporum): 5 µM (≈ 1.24 µg/mL)
MFC (Fusarium tricinctum): > 20 µM
MIC (Fusarium tricinctum): 1.25 µM (≈ 0.31 µg/mL)
MFC (Mycosphaerella populorum): > 20 µM
MIC (Mycosphaerella populorum): 1.25 µM (≈ 0.31 µg/mL)
MFC (Nodulosporium spp.): > 20 µM
MIC (Nodulosporium spp.): 0.625 µM (≈ 0.155 µg/mL)
MFC (P. glomerata): > 20 µM
MIC (P. glomerata): > 20 µM
MIC (P. glomerata; P. glomerata, […]): no activity in the range tested

MIC80 (Candida albicans SC5314 [1]): 0.125 µM (≈ 0.0882 µg/mL)
MIC80 [2]: 0.06 µM (≈ 0.0423 µg/mL)
MIC80 [3]: 0.6 µM (≈ 0.423 µg/mL)
MIC80 [4]: 0.6 µM (≈ 0.423 µg/mL)
MIC80 [5]: 0.6 µM (≈ 0.423 µg/mL)
MIC80 [6]: 0.6 µM (≈ 0.423 µg/mL)
MIC80 [7]: 5 µM (≈ 3.53 µg/mL)
MIC80 [8]: 1.25 µM (≈ 0.882 µg/mL)
MIC80 [9]: 1.25 µM (≈ 0.882 µg/mL)
MIC80 [10]: 0.15 µM (≈ 0.106 µg/mL)
MIC80 [11]: 2.5 µM (≈ 1.76 µg/mL)
MIC80 [12]: 0.6 µM (≈ 0.423 µg/mL)
MIC80 [13]: 2.5 µM (≈ 1.76 µg/mL)
MIC80 [14]: 0.6 µM (≈ 0.423 µg/mL)
MIC80 [15]: 10 µM (≈ 7.06 µg/mL)
MIC80 (Fusarium solani 243G2): 2.5 µM (≈ 1.76 µg/mL)
MIC80 [16]: 2.5 µM (≈ 1.76 µg/mL)
SMILES: CCC(C)n1ncn(-c2ccc(N3CCN(c4ccc(OCC5COC(Cn6cncn6)(c6ccc(Cl)cc6Cl)O5)cc4)CC3)cc2)c1=O (stereo not shown) [ITC, itraconazole]
MFC (Candida albicans SC5314 [1]): > 10 µM
MFC [2]: > 10 µM
MFC [3]: 5 µM (≈ 3.53 µg/mL)
MFC [4]: > 10 µM
MFC [5]: 2.5 µM (≈ 1.76 µg/mL)
MFC [6]: > 10 µM
MFC [7]: > 10 µM
MFC [8]: > 10 µM
MFC [9]: 10 µM (≈ 7.06 µg/mL)
MFC [10]: 0.6 µM (≈ 0.423 µg/mL)
MFC [11]: 5 µM (≈ 3.53 µg/mL)
MFC [12]: 2.5 µM (≈ 1.76 µg/mL)
MFC [13]: 5 µM (≈ 3.53 µg/mL)
MFC [14]: 0.6 µM (≈ 0.423 µg/mL)
MFC [15]: > 10 µM
MFC (Fusarium solani 243G2): 5 µM (≈ 3.53 µg/mL)
MFC [16]: 1.25 µM (≈ 0.882 µg/mL)
MFC [17]: 1.25 µM (≈ 0.882 µg/mL)
MIC80 [17]: 0.3 µM (≈ 0.212 µg/mL)

SMILES: C[C@@H]1C/C=C/C=C/C=C/C=C/[C@H](O[C@@H]2O[C@H](C)[C@@H](O)[C@H](N)[C@@H]2O)C[C@@H]2O[C@](O)(C[C@@H](O)C[C@H]3O[C@@H]3/C=C/C(=O)O1)C[C@H](O)[C@H]2C(=O)O [Natamycin, natamycin]
antifungal activity (fungal growth/infection), in words (Candida albicans SC5314 [18]): inhibited the growth; also recorded: reduced the infection
CFU (Candida albicans SC5314 [18]): 0 CFU
CFU (C. albicans SC5314 Flu^R): 0 CFU
antifungal activity (fungal growth/infection), in words [19]: inhibited the growth; also recorded: reduced the fungal burden
CFU [19]: 0 CFU
